What all share (format): biochemical
The target of test [1] is T1, β5 subunit of the yeast 20S proteasome (Saccharomyces cerevisiae, UniProt P30656).
T1 construct: purified yeast 20S proteasome core particle (yCP); host or cells: yeast
Description: IC50 determination with purified yeast 20S proteasome core particle (yCP), chymotrypsin-like activity, fluorogenic AMC substrate. The following applies: yCP 0.05 mg/mL, 100 mM Tris-HCl pH 7.5; 45 min incubation at room temperature; Suc-Leu-Leu-Val-Tyr-AMC 200 µM (ChT-L); triplicate. As for the experimental part:
(§1) The concentration of purified yCP was determined spectrophotometrically at 280 nm. yCP (final concentration: 0.05 mg/mL in 100 mM Tris-HCI, pH 7.5) was mixed with DMSO as a control or serial dilutions of the compound 1 in DMSO, thereby not surpassing a final concentration of 10% (v/v) DMSO. After an incubation time of 45 min at room temperature, fluorogenic substrates Boc-Leu-Arg-Arg-AMC, Z-Leu-Leu-Glu-AMC, and Suc-Leu-Leu-Val-Tyr-AMC (final concentration of 200 µM) were added to measure the residual activity of […], and chymotrypsin-like (ChT-L, β5 subunit), respectively. The assay mixture was incubated for another 60 min at RT and afterward diluted 1:10 in 20 mM Tris-HCI, pH 7.5. The AMC-molecules released by hydrolysis were measured in triplicate with a Varian Cary Eclipse Fluorescence Spectrophotometer (Agilent Technologies) at λexc = 360 nm and λem = 460 nm. Relative fluorescence units were normalized to the DMSO treated control. The calculated residual activities were plotted against the logarithm of the applied inhibitor concentration and fitted with GraphPad Prism 9. Half maximum inhibitory concentration (IC50) values were deduced from the fitted data.

In test [2] the target is T2, β1 subunit of the yeast 20S proteasome (Saccharomyces cerevisiae, UniProt P38624).
T2 construct: purified yeast 20S proteasome core particle (yCP); host or cells: yeast
Description: IC50 determination with purified yeast 20S proteasome core particle (yCP), caspase-like activity, fluorogenic AMC substrate. The following applies: yCP 0.05 mg/mL, 100 mM Tris-HCl pH 7.5; 45 min incubation at room temperature; fluorogenic substrate 200 µM, caspase-like (C-L); read-out: binding affinities for β1. As for the experimental part: as §1

Test [3] concerns the target T3, β2 subunit of the yeast 20S proteasome (Saccharomyces cerevisiae, UniProt P25043).
T3 construct: purified yeast 20S proteasome core particle (yCP); host or cells: yeast
Description: IC50 determination with purified yeast 20S proteasome core particle (yCP), trypsin-like activity, fluorogenic AMC substrate. The following applies: yCP 0.05 mg/mL, 100 mM Tris-HCl pH 7.5; 45 min incubation at room temperature; fluorogenic substrate 200 µM, trypsin-like (T-L); read-out: binding affinities for β2. As for the experimental part: as §1

Take `CC(C)C1C(=O)OC1C(=O)O` (stereo not drawn) [Compound 1, 3-isopropyl-4-oxo-2-oxetanecarboxylic acid]: the IC50 amounted to 6.2 µM in test [1], 625 µM in test [2] and 60 µM in test [3].
